Data on two molecules can be found in US20260027243A1, “AMPHIPHILIC COMPOUNDS FOR ATTENUATING NEUROTOXICITY OF AMYLOID-beta OLIGOMERS AND DIAGNOSTIC METHODS” (THE BOARD OF TRUSTEES OF THE UNIVERSITY OF ILLINOIS, priority 2022, published 2026).

Where two headings read alike, the source gives them in different places.

The target in data set [1] is T1, Aβ42 fibrils and oligomers (Homo sapiens, UniProt P05067).
T1 construct: commercial Aβ42 monomer powder (from GL biochem); purchased GL biochem
The experiment in a line: Fluorescence turn-on with Aβ42 fibrils and oligomers. In kind it is binding. The protocol: Fluorescence Spectral Testing of Compounds with Aps2 Fibrils and Aβ42 Oligomers. The formation of Aβ42 fibrils and oligomers was confirmed by the ThT fluorescence turn-on assay. The fluorescence spectra of ThT in PBS (100 μL PBS, 10.0 μM) were recorded as the baseline. After that, either Aβ42 fibrils or oligomers were added to ThT in PBS. The final volume of the solution mixture should be 100 μL, in which the final concentrations of ThT and Aβ42 species were10. μM and 25 μM, respectively.
For the interactions between Aps and compounds, the fluorescence spectra of the compounds' solution (100 μL PBS, 5.0 μM) were recorded as the baseline without adding various Aβ42 species.
After that, either Aβ42 fibrils or oligomers were added to the compounds' solutions in PBS. The final volume of the solution mixture should be 100 μL, in which the final concentrations of the compound and Aβ42 species were 5. μM and 25 μM, respectively.

The next data set has as its target T2, Aβ42 oligomers (Homo sapiens, UniProt P05067).
T2 construct: commercial Aβ42 monomer powder (from GL biochem); purchased GL biochem
Nature of the data set: Fluorescence saturation binding assay with Aβ42 oligomers. The protocol:
Aβ42 oligomers: The 0.5 mg monomeric films were dissolved in 1.1 mL PBS buffer (with final DMSO concentration less than 1%) and incubated at 4° C. overnight. The resulting solution was then centrifuged at 3000 rpm for 15 mins to remove the insoluble aggregates. The clear supernatant was then used for the following experiments. Aβ42 oligomers concentration was checked by measuring the absorbance of the supernatant at 280 nm.
(§1) In Vitro Saturation Binding Studies with Aβ42 Fibrils and Aβ42 Oligomers. To a solution of increasing concentrations of compounds, a fixed concentration of the generated aggregated Aβ42 fibrils or Aβ42 oligomers solutions (5 to 15 NM) was added to yield a total volume of 100 μL. Nonspecific binding was determined […]. The mixture was incubated for 15 min at room temperature. All fluorescence data were obtained on a SpectraMax M2e plate reader (Molecular Devices). The fluorescent intensity was measured at the corresponding emission wavelength of each compound, and the Kd binding curves were generated by GraphPad Prism 8.0 with one site-specific binding model. Equation: Y=Bmax*X/(Kd+X).

Data set [2] concerns brain region of 5×FAD mice vs. WT mice. Nature of the data set: Real-time in vivo NIR fluorescence imaging. The arrangement: species or system mouse. The following applies: 5 mg/kg. How it is done: DCM-OH-2-DT was chosen as the best candidate for real-time in vivo fluorescence imaging studies. Seven-month-old AD mice and age-matched wild type (WT) mice were injected with the compound at 5 mg/kg. The NIR fluorescence intensities from the brain region were collected and analyzed over time. […] These imaging results further support the potential in vivo application of the developed compounds.
In vivo Imaging Studies. The real-time in vivo fluorescence imaging studies were performed with IVIS imaging system. 7-month-old 5×FAD mice (n=3) and age-matched control B6SJLF1/J mice (n=3) were shaved at the brain region before background imaging. All mice were injected with DCM-OH-2-DT (5 mg/kg, 15% DMSO, 85% PBS) via jugular vein injection. The mice were kept on the imaging stage under anesthesia with 2.5% isoflurane gas in an oxygen flow (1.5 L/min) before the imaging and were woken up after the imaging. Fluorescence signals from the brain were recorded at 5-, 15-, 30-, 60-min after the injection of DCM-OH-2-DT with a filter set (excitation at 470 nm and emission at 740 nm). Imaging data was analyzed by Living Image software, and an ROI was drawn around the brain region. The data were analyzed by subtracting the background fluorescence intensity of each mouse. P values were calculated by Student's t test.

Data set [3] concerns the target T3, native Aβ species in 5×FAD mice brain sections (Homo sapiens, UniProt P05067).
T3 construct: from tissue; host or cells: brain sections of 5×FAD transgenic mice
The experiment in a line: Fluorescence staining of 5×FAD mice brain sections, colocalization. The arrangement: species or system mouse. The following applies: 5×FAD brain sections, compared with ThS. How it is done: Histological Staining of 5×FAD Mice Brain Sections. 5×FAD transgenic mice brain sections were blocked with bovine serum albumin (2% BSA in PBS, pH 7.4, 10 min). Then the mice brain sections were transferred to a PBS solution of the compound and incubated for 1 h. […] Then, the brain sections were treated with BSA again (5 min) followed by washing with PBS (3×2 min), DI water (3×2 min). Finally, the mice brain sections were mounted with non-fluorescent mounting media, and the images were obtained by using EVOS FL Auto 2. ImageJ Fiji program was used for colocalization analysis and determination of the Pearson's correlation coefficient. The primary antibodies were labeled with dye CF594 via Mix-n-Stain™ CF™ 594 Antibody Labeling Kit (Sigma Aldrich).

Data set [4] can be described thus: Log D by octanol-PBS partition. In kind it is physicochemical. The following applies: DCM compounds. The protocol:
Log D measurements. The Log D value was measured following a published procedure using slight modifications. In general, compounds in 0.5 mL octanol was subjected to partition with 0.5 mL octanol-saturated PBS. The whole mixture was stirred vigorously for 5 min, and centrifuged at 2,000 rpm for 5 min. The top octanol layer was separated for later fluorescence measurement. The remaining PBS layer was partitioned with 0.5 mL PBS-saturated octanol, and the second top octanol layer was then separated after vigorous stirring and centrifuging at 2,000 rpm for another 5 min. The two octanol layers' fluorescence spectra were recorded. The log D value was calculated by the fluorescence intensity ratio at the compounds' emission wavelength for the above two octanol extractions.

In the next data set the target is T4, Aβ42 fibrils (Homo sapiens, UniProt P05067).
T4 construct: commercial Aβ42 monomer powder (from GL biochem); purchased GL biochem
T4 sequence (P05067 672-713 limits assumed): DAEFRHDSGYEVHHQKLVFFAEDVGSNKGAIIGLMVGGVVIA
Nature of the data set: Fluorescence saturation binding assay with Aβ42 fibrils. The protocol:
Preparation of the Aβ42 Fibrils and Aβ42 Oligomers. Aβ42 fibrils: 1 mg of commercial Aβ42 monomer powder (from GL biochem) was dissolved in 1 mL 1,1,1,3,3,3-hexafluoro-2-propanol (HFIP) at room temperature and incubated for 1 h. The resulting solution was divided equally into two Eppendorf tubes. The solution in each Eppendorf tube containing 0.5 mg Aβ42 monomer was then evaporated overnight and dried by vacuum centrifuge to generate monomeric films. […] Aβ42 fibrils solution was prepared by dissolving the 0.5 mg monomeric films in 1.1 mL PBS buffer (with final DMSO concentration less than 1%) and stirring at 37° C. for 3 days.
as §1

Data set [5] has as its system native Aβ aggregates in AD mice brain. Nature of the data set: BBB permeability: in vivo accumulation after intraperitoneal treatment, brain section colocalization. The arrangement: species or system mouse. The following applies: 12-month-old AD mice, 0.1 mg/Kg, 10 days. How it is done: FIG. 13. In vivo accumulation of DCM-OH-2-DT. Fluorescence microscopy images of brain sections from 12-month-old 5×FAD mice administered with DCM-OH-2-DT for 10 days. The brain sections were stained with Thioflavin S (ThS); [ThS]=5 μM, scale bar=125 μm.
(§2) Fluorescence Imaging of 5×FAD Mouse Brain Sections and blood-brain barrier (BBB) permeability. To confirm the developed compounds can also bind to native Aβ aggregates, we performed fluorescence imaging studies and colocalization experiments on 5×FAD mouse brain sections. […] This further supports that the compounds are selective and can bind to native soluble Aβ oligomers. Before investigating the blood-brain barrier (BBB) permeability of the developed compounds, their neurotoxicity was measured first (FIG. 12). […] DCM-OH-2 leads to less than 80% cell viability even at 2 μM, which is probably due to its poor solubility. Nevertheless, the DCM-OH-2-DT was chosen as the candidate to test the blood-brain barrier (BBB) permeability. 12-month-old AD mice were treated with compound DCM-OH-2-DT (0.1 mg/Kg) for 10 days via intraperitoneal injection. At the end of treatment, mice brains were harvested and colocalization experiments were performed on the mice brain sections.

The test system of data set [6] is human neuroblastoma cells (SH-SY5Y). The experiment in a line: Cytotoxicity of DCM compounds in SH-SY5Y cells. The following applies: at 2 μM. It counts as cell-based.
Source text: as §2

T2 sequence (P05067 672-713 limits assumed): as above
T3 sequence (P05067 672-713 limits assumed): as above
T1 sequence (P05067 672-713 limits assumed): as above

The Kd is the constant that tells how readily two partners part at equilibrium. As usually defined, the logD is the decadic logarithm of the distribution of all forms, ionised or not, between an organic phase and buffer at a given pH. The low end stands for a more hydrophilic compound, the high end for a more lipophilic compound. Take `CN1CCN(C)CCN(Cc2cc(/C=C/C=C/C3=CC(=C(C#N)C#N)c4ccccc4O3)cc(CN3CCN(C)CCN(C)CC3)c2O)CC1` [DCM-OH-2-DT, 2-(2-((1E,3E)-4-(3,5-bis((4,7-dimethyl-1,4,7-triazonan-1-yl)methyl)-4-hydroxyphenyl)buta-1,3-dien-1-yl)-4H-chromen-4-ylidene)malononitrile]: the “maximum emission wavelength when binding to Aβ aggregates” value in data set [1] was 730 nm. The Kd at Aβ42 oligomers (Table 3, DCM compounds, read-out: Kd, Oligomers) is 430 ± 60 nM; at Aβ42 fibrils (Table 3, DCM compounds, read-out: Kd, Fibrils) it was 500 ± 110 nM. Further, the “time to maximum brain NIR fluorescence signal after injection” value in data set [2] (jugular vein injection) was “about 15 min”. For the same molecule, the “brain fluorescence signal, AD mice vs WT mice” value in data set [2] (7-month-old mice, 5-, 15-, and 30-min post injection) was “significantly higher fluorescence signal in AD mice”. The “region of Aβ aggregates bound” value in data set [3] is reported as “bind to the peripheral region of the Aβ aggregates”. In data set [4], the logD was determined as 1.2 ± 0.07. Besides, in data set [5], the “colocalization with ThS after in vivo administration” value is “good colocalization with ThS”.
Regarding `N#CC(C#N)=C1C=C(/C=C/C=C/c2ccc(O)cc2)Oc2ccccc21` [DCM-OH-2], the dissociation constant (Kd) stood at 120 nM on Aβ42 oligomers (read-out: Kd value to Aβ42 oligomers) and 80 nM on Aβ42 fibrils (read-out: Kd value to Aβ42 fibrils). Further, in data set [6], the cell viability entry is recorded as “less than 80%”. In addition, the pH-dependent lipophilicity (logD) in data set [4] came to 0.96 ± 0.07.
